Key:
Format in all cases: in vivo
[1] = tested on: db/db mice, permanent occlusion of the MCA; assay: pMCAO in db/db mice: infarct volume; details: 20 mg/kg i.v. immediately after MCA occlusion, 24 hours
Description: The effect of compounds of the present invention on infarct volume and edema associated with stroke was examined in an animal model of ischemic stroke. In these studies, mice were subjected to permanent occlusion of the middle cerebral artery. Mice were anesthetized intraperitoneally with avertin (0.5 mg/g). Mice were then immobilized in a rodent stereotaxic frame (Kopf Instruments, Tujunga Calif.) and maintained with avertin as needed. The surgical area of the head was swabbed with 70% ethanol and a lateral incision was made between the right orbit and the right ear. […] The distal course of the middle cerebral artery (MCA) was visible through the translucent skull. A small burr-hole craniotomy was performed with a micro-drill (Fine Science Tools, Foster City Calif.). The meninges/dura was removed and the MCA was coagulated by bipolar diathermy. The muscle and soft tissue were replaced and the incision closed with vet-bond adhesive (3M, St. Paul Minn.). These studies were performed in two different mouse models of pMCAO as described below.
To evaluate the effect of compounds of the present invention on infarct volume in an animal model of diabetes, db/db mice were subjected to ischemic stroke. Eight week-old male db/db mice were subjected to permanent occlusion of the MCA as described above. […] Changes in infarct volumes were determined as described above.

[2] = tested on: Wistar rats, transient occlusion of the MCA; assay: Rat tMCAO, 28 days: lesion area, neuronal degeneration, brain tissue loss (Fluoro-Jade B); details: 60 mg/kg p.o. at 1.5 and 24 hours after reperfusion then 30 mg/kg every other day, vs non-treated control
Description: In another series of experiments, the long term effect of administration of compounds of the present invention on stroke and brain tissue damage associated with stroke was examined. For these studies, the effect of compounds of the present invention on lesion area, neuronal degeneration, and brain tissue loss following stroke was examined 28 days after transient MCA occlusion. Wistar rats (320 g) were subjected to transient occlusion of the MCA as described above. Compound F (60 mg/kg) was administered by oral gavage at 1.5 hours and 24 hours after reperfusion and subsequently every other day (using a dose of 30 mk/kg, p.o.) for 28 days. Twenty-eight days after transient MCA occlusion, animals were anesthetized with 3% isoflurane in oxygen and transcardially perfused with 100 ml of 0.9% saline solution (Hospira Inc, Lake Forest Ill.). Brains were removed and sliced into 6 coronal sections, 2 mm thick, and embedded in cryomold standard (Sakura Finetek, Ca) using O.C.T. embedded medium (Sakura Finetek, Ca). […]
Changes in lesion area were measured as follows. […] Lesion area was determined by measuring the infarcted (i.e., non-Fluoro-Jade B stained) areas of each brain section. […]
Changes in neuronal degeneration were measured as follows. […] Fluoro-Jade B positive cells observed in the digital photographs were quantified using Image Pro-Plus image analysis software (Media Cybernetics, Silver Spring Md.). Extent of neuronal degeneration was determined by comparing the total number of Fluoro-Jade B positive cells per mm^2 area of the treated group to the same area of the corresponding vehicle-control group. The distance of each coronal section from bregma was determined.
Changes in area of brain tissue loss were measured as follows. […] Area of brain tissue loss, associated with the ischemic insult, was measured by […]. A percentage value was then determined by dividing the area of brain tissue loss associated with the stroke by the total area of the contralateral hemisphere. […]

[3] = tested on: Wistar rats, transient MCA occlusion; assay: Tactile adhesion test in rat tMCAO; details: 60 mg/kg p.o. at 1.5 and 24 hours after reperfusion then 30 mg/kg every other day, day 7, vs non-treated control, FIG. 4
Description: (§1) Rats subjected to cerebral ischemia following transient MCA occlusion have deficits in sensorimotor and neuromuscular function which can be assessed using various behavioral tests. (See, e.g., Aronowski et al. J Cereb Blood Flow Metab (1996) 16:705-713; and Colbourne et al. J Cereb Blood Flow Metab (2000) 20:1702-1708.) The effect of compounds of the present invention on various functional impairments associated with stroke was examined using an animal model of ischemic stroke. In this series of experiments, male Wistar rats (300 g) underwent behavioral testing after transient MCA occlusion. One day prior to MCAO surgery, the rats were trained to the grip strength meter and subjected to tactile adhesion testing. Following their training, rats were subjected to transient occlusion of the MCA in the same manner described in Example 10 above. Compound F (60 mg/kg, p.o.) was administered by oral gavage at 1.5 hours and 24 hours after reperfusion and then every other day (with a dose of 30 mk/kg, p.o.) for 28 days. […]
A tactile adhesion test was used to measure sensorimotor deficits and function. […] The latency (i.e. time required for the animal to remove each stimulus from the forelimbs) was recorded for ipsilateral (right) and contralateral (left) forelimbs separately. Three trials separated by 5 minutes were carried out for each rat and mean latency values in seconds (sec) were recorded.

[4] = tested on: Wistar rats, transient MCA occlusion; assay: Grip strength test in rat tMCAO; details: 60 mg/kg p.o. at 1.5 and 24 hours after reperfusion then 30 mg/kg every other day, days 7, 14, 21, and 28, vs non-treated control, FIG. 5
Description: as §1
Grip strength was used to assess neuromuscular function. Rat grip strength was determined using a standard rodent grip strength meter (Columbus Instruments, Columbus Ohio). […] Grip strength was assessed with a gentle consistent pull in the caudal direction. The digital reading on the meter was recorded and the mean of three trials reported. […]

For `COc1ccc(Oc2ccc3c(O)c(C(=O)NCC(=O)O)ncc3c2)cc1` [Compound F, {[4-Hydroxy-7-(4-methoxy-phenoxy)-isoquinoline-3-carbonyl]-amino}-acetic acid], the “reduction in infarct volume” value [1] was 52%, the lesion area ([2]; FIG. 1) was “reduced” and the “neuronal degeneration (Fluoro-Jade B positive cells)” value ([2]; FIG. 2) was “reduced”. For the same compound, the brain tissue loss ([2]; FIG. 3) was “reduced”, the “latency in the tactile adhesion test” value [3] was “significantly improved” and the grip strength [4] was “significantly improved”.
